16 compounds from ChEMBL document CHEMBL1201862, “PubChem BioAssay data set” (2004) can be followed below.

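Interpolation was linear, between the two tested concentrations surrounding the appropriate level; five concentrations were tested over 48 hours in 96-well plates. GI50: concentration for 50% inhibition of growth.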 Activity calls are given as the source filed them. No stated cut-off is given here; in the data, active = GI50 up to about 1.1 µM and inactive = higher.

Some test systems named below: A498; HCT-116; HCT-15; HOP-92; K562; Malme-3M; NCI-H460; OVCAR-3; SF-268; SF-539; TK-10; U-251; UACC-62; SR.
What all share (experiment): NCI anticancer screen, dose series, 48 h

Take `Cc1cccc(C2=C/C(=C(\SS/C(C(=O)c3ccc(OCC(=O)O)c(Cl)c3Cl)=C3\C=C(c4cccc(C)c4)SS3)C(=O)c3ccc(OCC(=O)O)c(Cl)c3Cl)SS2)c1`: the GI50 in the assay on A498 is 24.4 µM (inactive); in the assay on HCT-116, 10.2 µM (inactive); in the assay on HCT-15 it was 12 µM; with HOP-92, 5.45 µM (inactive); in the assay with K562, 4.31 µM (inactive); with Malme-3M it was 25.5 µM (inactive). The GI50 is 27.2 µM (inactive) with NCI-H460; 14.2 µM (inactive) with OVCAR-3; 10.8 µM (inactive) in the assay on SF-268; 12.4 µM (inactive) with SF-539; 27.9 µM (inactive) in the assay on TK-10; 4.51 µM (inactive) in the assay on U-251. Also, the GI50 in the assay with UACC-62 was 13.8 µM (inactive).
As for `Oc1cccc2c1NC1=C(CCC/C1=C\c1ccccc1)C2`, the GI50 in the assay on HCT-116 was 82.6 µM (inactive); with HCT-15, 43.4 µM; with K562 it was 59.6 µM (inactive); in the assay on Malme-3M, > 100 µM (inactive); in the assay with NCI-H460, 57.1 µM (inactive); in the assay on OVCAR-3 it was > 100 µM (inactive). Further, the GI50 in the assay with SF-268 was > 100 µM (inactive); in the assay with SF-539 it was 20.6 µM (inactive); in the assay on SR, 50.1 µM (inactive); with TK-10, > 100 µM (inactive); in the assay on U-251, 69 µM (inactive).
As for `C[C@@H](CO)OCOCc1ccccc1`, the GI50 is > 100 µM (inactive) in the assay on A498; > 100 µM (inactive) in the assay on HCT-116; over 100 µM in the assay on HCT-15; > 100 µM (inactive) in the assay with HOP-92; > 100 µM (inactive) with K562; > 100 µM (inactive) in the assay on Malme-3M. For the same compound, the GI50 in the assay on NCI-H460, in the assay with OVCAR-3, in the assay on SF-268, with SF-539, in the assay on U-251 and in the assay on UACC-62 was > 100 µM (inactive) in each case.
As for `Cc1cc2c(=O)cc(-c3ccncc3)oc2c(C(=O)O)c1C`, the GI50 in the assay on HCT-116 is > 100 µM (inactive); in the assay with HCT-15, over 100 µM; with HOP-92, > 100 µM (inactive); in the assay with Malme-3M it was > 100 µM (inactive); with NCI-H460 it was > 100 µM (inactive); with OVCAR-3, > 100 µM (inactive). For the same compound, the GI50 with SF-268, in the assay with SF-539, in the assay with SR, in the assay on TK-10, in the assay with U-251 and with UACC-62 was > 100 µM (inactive) throughout.
Take `NNC(=O)N/N=C1\CNC(=O)C(=O)C1c1nc2ccccc2s1` (configuration not stated): the GI50 with A498 is > 100 µM (inactive); with HCT-116, > 100 µM (inactive); in the assay on HCT-15 it was over 100 µM; in the assay with HOP-92 it was > 100 µM (inactive); with K562 it was > 100 µM (inactive); with Malme-3M it was > 100 µM (inactive). Also, the GI50 in the assay with NCI-H460, with OVCAR-3, in the assay on SF-268, in the assay with SF-539, with TK-10 and in the assay with U-251 was > 100 µM (inactive) throughout. In addition, the GI50 in the assay on UACC-62 is > 100 µM (inactive).
For the compound `COC(=O)C(=O)C(C(=O)C(=O)Nc1ccc([N+](=O)[O-])cc1)c1nc2ccccc2nc1O` (configuration not stated), the GI50 in the assay on A498 was > 100 µM (inactive); in the assay with HCT-116, > 100 µM (inactive); in the assay on HCT-15 it was 15 µM; in the assay with HOP-92, > 100 µM (inactive); with K562 it was 39.1 µM (inactive); in the assay with Malme-3M, > 100 µM (inactive). The GI50 in the assay with NCI-H460 was > 100 µM (inactive); in the assay with OVCAR-3, > 100 µM (inactive); with SF-268 it was > 100 µM (inactive); in the assay with TK-10 it was > 100 µM (inactive); with U-251 it was > 100 µM (inactive); with UACC-62, 19.6 µM (inactive).
In the case of `Cc1cc(O)nc(CNC(=O)c2cccc(C(=O)NCc3cc(O)nc(C)n3)c2)n1`, the GI50 is > 100 µM (inactive) in the assay on A498; > 100 µM (inactive) in the assay with HCT-116; over 100 µM in the assay on HCT-15; > 100 µM (inactive) in the assay with HOP-92; > 100 µM (inactive) in the assay on K562; > 100 µM (inactive) with Malme-3M. Further, the GI50 in the assay on NCI-H460, in the assay on OVCAR-3, in the assay with SF-268, in the assay on SF-539, in the assay with TK-10 and in the assay with U-251 was > 100 µM (inactive) in each case. The GI50 in the assay with UACC-62 was > 100 µM (inactive).
In the case of `Cc1ccc(NC(=O)CC(=O)n2nc(-c3ccccc3)c(/N=N/c3ccc(Cl)cc3)c2-c2ccccc2)cc1`, the GI50 with A498 is > 100 µM (inactive); in the assay with HCT-116, 19.5 µM (inactive); with HCT-15, 88.7 µM; with HOP-92 it was 39.7 µM (inactive); with K562, 13.5 µM (inactive); in the assay on Malme-3M it was > 100 µM (inactive). Besides, the GI50 in the assay with NCI-H460 was 40.3 µM (inactive); in the assay with OVCAR-3 it was 42.6 µM (inactive); in the assay with SF-268, > 100 µM (inactive); in the assay with SF-539 it was 28.8 µM (inactive); in the assay on TK-10, 22.3 µM (inactive); in the assay on UACC-62, > 100 µM (inactive).
`CC(=O)N1C(=O)C(=O)c2cc(Cl)ccc21`: the GI50 in the assay on A498 is > 100 µM (inactive); with HCT-15, over 100 µM; in the assay with K562, > 100 µM (inactive); in the assay on Malme-3M, > 100 µM (inactive); in the assay on NCI-H460, > 100 µM (inactive); in the assay with OVCAR-3, > 100 µM (inactive). The GI50 in the assay with SF-268, in the assay on SF-539, in the assay on SR, with TK-10, in the assay on U-251 and in the assay on UACC-62 was > 100 µM (inactive) each time.
Consider `Cc1ccc(S(=O)(=O)OC(C=O)C(O)C(O)COC(c2ccccc2)(c2ccccc2)c2ccccc2)cc1` (configuration not stated), for which the GI50 with A498 is 18 µM (inactive); in the assay on HCT-116, 16.4 µM (inactive); with HCT-15, 14.1 µM; in the assay with K562 it was 16.9 µM (inactive); in the assay with Malme-3M, 19 µM (inactive); in the assay on NCI-H460, 14 µM (inactive). In addition, the GI50 with OVCAR-3 is 14.9 µM (inactive); in the assay with SF-268 it was 19.6 µM (inactive); in the assay with SF-539, 16.3 µM (inactive); with SR, 5.43 µM (inactive); with U-251 it was 14.4 µM (inactive); in the assay on UACC-62, 15.2 µM (inactive).
For `N#Cc1ccc(Nc2cnc3ccc(N)cc3n2)cc1`, the GI50 in the assay on HCT-116 is > 100 µM (inactive); with HCT-15, over 100 µM; in the assay on HOP-92, > 100 µM (inactive); with K562, > 100 µM (inactive); with Malme-3M, > 100 µM (inactive); with NCI-H460 it was > 100 µM (inactive). Further, the GI50 is > 100 µM (inactive) with OVCAR-3; > 100 µM (inactive) in the assay with SF-268; > 100 µM (inactive) in the assay with SF-539; 91.4 µM (inactive) with SR; > 100 µM (inactive) in the assay on TK-10; > 100 µM (inactive) in the assay on U-251. Besides, the GI50 in the assay with UACC-62 was > 100 µM (inactive).
`O=C(Nc1cccc(Cl)c1)c1cc2cc(/N=N/c3ccc(Br)cc3)ccc2oc1=O`: the GI50 in the assay on A498 is > 100 µM (inactive); with HCT-116, 37.2 µM (inactive); in the assay with HCT-15 it was 10.2 µM; in the assay with HOP-92 it was 37.8 µM (inactive); in the assay with K562, 6.19 µM (inactive); in the assay with Malme-3M it was > 100 µM (inactive). Moreover, the GI50 with NCI-H460 is 36 µM (inactive); with OVCAR-3, 22.8 µM (inactive); in the assay on SF-268, 14.6 µM (inactive); in the assay on SF-539, 56.2 µM (inactive); in the assay with TK-10, 51.1 µM (inactive); with U-251, 26.7 µM (inactive). In addition, in the assay on UACC-62, the GI50 was 14.1 µM (inactive).
As to `C#C[C@]1(O)CCCC2=CC(=O)CC[C@@]21C`, the GI50 in the assay on HCT-15 was over 100 µM; with HOP-92, > 100 µM (inactive); with K562, > 100 µM (inactive); in the assay on Malme-3M it was > 100 µM (inactive); with NCI-H460 it was > 100 µM (inactive); in the assay on OVCAR-3, > 100 µM (inactive). Also, the GI50 in the assay on SF-268, with SF-539, in the assay with SR, in the assay with TK-10 and with U-251 was > 100 µM (inactive) throughout.
As for `OC1CN(OC/C=C/c2ccccc2)CC(O)C1O` (configuration not stated), the GI50 in the assay with A498 is > 100 µM (inactive); with HCT-116 it was > 100 µM (inactive); with HCT-15 it was over 100 µM; in the assay on HOP-92, > 100 µM (inactive); in the assay on K562, > 100 µM (inactive); with Malme-3M, > 100 µM (inactive). Also, the GI50 is 63.4 µM (inactive) in the assay on NCI-H460; > 100 µM (inactive) in the assay with OVCAR-3; > 100 µM (inactive) with SF-268; > 100 µM (inactive) with SF-539; > 100 µM (inactive) in the assay with TK-10; > 100 µM (inactive) in the assay with U-251. Further, the GI50 in the assay on UACC-62 is > 100 µM (inactive).
Regarding `CCOC(=O)/C(=C/c1ccccc1Br)P(=O)(OCC)OCC`, the GI50 in the assay on A498 is 3.19 µM (inactive); in the assay with HCT-116, 3.15 µM (inactive); in the assay on HCT-15, 1.78 µM; in the assay on HOP-92 it was 1.46 µM (inactive); with K562, 0.298 µM (active); in the assay with Malme-3M it was 1.84 µM (inactive). The GI50 was 2.87 µM (inactive) in the assay with NCI-H460; 2.81 µM (inactive) with OVCAR-3; 2.9 µM (inactive) with SF-268; 2.4 µM (inactive) in the assay on SF-539; 3.23 µM (inactive) with TK-10; 1.59 µM (inactive) with U-251. For the same compound, the GI50 in the assay on UACC-62 was 1.24 µM (inactive).
For the compound `Cn1cnc([N+](=O)[O-])c1Sc1nnnn1-c1ccccc1`, the GI50 is 18.7 µM (inactive) with A498; 11.3 µM (inactive) in the assay with HCT-116; 2.72 µM (inactive) in the assay on HOP-92; 3.94 µM (inactive) in the assay with K562; 7.76 µM (inactive) in the assay with Malme-3M; 16.5 µM (inactive) in the assay with NCI-H460. Further, the GI50 was 13.6 µM (inactive) in the assay on OVCAR-3; 19.5 µM (inactive) in the assay on SF-268; 12.2 µM (inactive) in the assay on SF-539; 17.9 µM (inactive) in the assay on TK-10; 13 µM (inactive) with U-251; 13.9 µM (inactive) in the assay on UACC-62.
